Experimental data from US12492173B2, “Herbicidal substituted N-tetrazolyl aryl carboxamides” (Bayer Aktiengesellschaft, priority 2019, dated 2025).

Legend:
Type in all cases: in vivo
Polygonum convolvulus = test: Post-emergence herbicidal action, POLCO
Method in brief: (§1)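 After sowing into sandy loam, plants grew 2 to 3 weeks under greenhouse conditions until one leaf, then got a spray of compound as aqueous suspension or emulsion. Roughly three weeks on, activity was estimated visually against untreated pots.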

Echinochloa crus-galli = test: Post-emergence herbicidal action, ECHCG; parameters: key: % herbicidal action vs untreated; 100 = plants died, 0 = like control
Method in brief: as §1

Avena fatua = test: Post-emergence herbicidal action, AVEFA; parameters: key: % herbicidal action vs untreated; 100 = plants died, 0 = like control; conditions: for Herbicidal action against AVEFA: comparative experiment
Method in brief: as §1

Matricaria inodora = test: Pre-emergence herbicidal action, MATIN; parameters: key to Herbicidal action against MATIN: % activity: 100 = plants have died, 0 = like control plants; conditions: for herbicidal activity MATIN: scored visually after 3 weeks vs untreated controls (100% = plants have died); for Herbicidal action against MATIN: comparative experiment
Method in brief: (§2)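 Herbicidal activity is expressed in percent, scored by eye after a 3-week greenhouse period, with 0% matching untreated plants and 100% meaning death. Compounds, as wettable powders or emulsion concentrates, are applied pre-emergence to the covering soil.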

Abutilon theophrasti [1] = test: Post-emergence herbicidal action, ABUTH; parameters: key: % herbicidal action vs untreated; 100 = plants died, 0 = like control
Method in brief: as §1

Abutilon theophrasti [2] = test: Pre-emergence herbicidal action, ABUTH; parameters: key to Herbicidal action against ABUTH: % activity: 100 = plants have died, 0 = like control plants; conditions: for herbicidal activity ABUTH: scored visually after 3 weeks vs untreated controls (100% = plants have died); for Herbicidal action against ABUTH: comparative experiment, 80 g of a.i./ha
Method in brief: as §2

[3] = post-emergence, 20 g of a.i./ha
[4] = comparative experiment, post-emergence, 20 g of a.i./ha

Structure (SMILES) | herbicidal action POLCO (Polygonum convolvulus; post-emergence, dosage 80 g/ha) [%] | herbicidal action ECHCG (Echinochloa crus-galli; post-emergence, dosage 80 g/ha) [%] | herbicidal action AVEFA (Avena fatua; post-emergence, dosage 80 g/ha) [%] | herbicidal activity MATIN (Matricaria inodora; dosage 320 g/ha) [%] | herbicidal action ABUTH (Abutilon theophrasti [1]; post-emergence, dosage 80 g/ha) [%] | herbicidal activity ABUTH (Abutilon theophrasti [2]; dosage 320 g/ha) [%] | also measured
Cn1nnnc1NC(=O)c1ccc(C(F)F)c(CS(C)(=O)=O)c1Cl [Example 1-322] | 90 | 100 | 80 | 100 | 100 | 100 | –
CCSCc1c(C(F)F)ccc(C(=O)Nc2nnnn2C)c1Cl [Example 1-323] | 90 | 100 | 100 | 90 | 100 | 100 | Herbicidal action against AVEFA (Avena fatua; post-emergence, 5 g of a.i./ha): 70
CCS(=O)(=O)Cc1c(C(F)F)ccc(C(=O)Nc2nnnn2C)c1Cl [Example 1-325] | – | – | – | 100 | – | 100 | herbicidal action POLCO (Polygonum convolvulus; Dosage 80 g/ha): 90; herbicidal action ECHCG (Echinochloa crus-galli; Dosage 80 g/ha): 100; herbicidal action AVEFA (Avena fatua; Dosage 80 g/ha): 90; herbicidal action ABUTH (Abutilon theophrasti [1]; Dosage 80 g/ha): 100
CSCc1c(I)ccc(C(=O)Nc2nnnn2C)c1Cl [Example 1-362] | 90 | 100 | 100 | 100 | 100 | 100 | Herbicidal action against MATIN (Matricaria inodora; 20 g of a.i./ha): 70
CCSCc1c(C(F)(F)F)ccc(C(=O)Nc2nnnn2C)c1Br [Example 1-383] | 90 | 90 | 90 | 100 | 100 | 100 | Herbicidal action against AVEFA (Avena fatua; [3]): 90; Herbicidal action against ABUTH (Abutilon theophrasti [1]; [4]): 90; Herbicidal action against ABUTH (Abutilon theophrasti [2]): 100
CCS(=O)(=O)Cc1c(C(F)(F)F)ccc(C(=O)Nc2nnnn2C)c1Br [Example 1-385] | 90 | 90 | 100 | 100 | 100 | 100 | Herbicidal action against POLCO (Polygonum convolvulus; [4]): 70; Herbicidal action against ECHCG (Echinochloa crus-galli; [4]): 90; Herbicidal action against AVEFA (Avena fatua; [3]): 80; Herbicidal action against MATIN (Matricaria inodora; 80 g of a.i./ha): 100; Herbicidal action against ABUTH (Abutilon theophrasti [2]): 100
Cn1nnnc1NC(=O)c1ccc(C(F)(F)F)c(CS(C)(=O)=O)c1C(F)(F)C(F)(F)F [Example 1-552] | – | – | – | 100 | – | 100 | herbicidal action POLCO (Polygonum convolvulus; Dosage 80 g/ha): 90; herbicidal action ECHCG (Echinochloa crus-galli; Dosage 80 g/ha): 90; herbicidal action AVEFA (Avena fatua; Dosage 80 g/ha): 90; herbicidal action ABUTH (Abutilon theophrasti [1]; Dosage 80 g/ha): 90
CCSCc1c(C(F)(F)F)ccc(C(=O)Nc2nnnn2CC)c1C [Example 2-86] | 100 | 90 | 100 | – | 80 | – | herbicidal action MATIN (Matricaria inodora; dosage 320 g/ha): 100%; herbicidal action ABUTH (Abutilon theophrasti [2]; dosage 320 g/ha): 100%
CCn1nnnc1NC(=O)c1ccc(C(F)(F)F)c(C[S+](C)[O-])c1SC (stereo not shown) [Example 2-162] | – | – | – | 100 | – | 100 | herbicidal action POLCO (Polygonum convolvulus; Dosage 80 g/ha): 90; herbicidal action ECHCG (Echinochloa crus-galli; Dosage 80 g/ha): 90; herbicidal action AVEFA (Avena fatua; Dosage 80 g/ha): 100; herbicidal action ABUTH (Abutilon theophrasti [1]; Dosage 80 g/ha): 100
CCn1nnnc1NC(=O)c1ccc(C(F)(F)F)c(CSC)c1Cl [Example 2-296] | 100 | 90 | 100 | 100 | 100 | 100 | –
CCn1nnnc1NC(=O)c1ccc(C(F)(F)F)c(C[S+](C)[O-])c1Cl (stereo not shown) [Example 2-297] | 90 | 100 | 100 | 100 | 80 | 100 | –
CCn1nnnc1NC(=O)c1ccc(C(F)(F)F)c(CS(C)(=O)=O)c1Cl [Example 2-298] | – | – | – | 100 | – | 100 | herbicidal action POLCO (Polygonum convolvulus; Dosage 80 g/ha): 90; herbicidal action ECHCG (Echinochloa crus-galli; Dosage 80 g/ha): 90; herbicidal action AVEFA (Avena fatua; Dosage 80 g/ha): 100; herbicidal action ABUTH (Abutilon theophrasti [1]; Dosage 80 g/ha): 80
CCSCc1c(C(F)(F)F)ccc(C(=O)Nc2nnnn2CC)c1Cl [Example 2-299] | 90 | 90 | 100 | 100 | 100 | 100 | –
CCn1nnnc1NC(=O)c1ccc(C(F)(F)F)c(C[S+]([O-])CC)c1Cl (stereo not shown) [Example 2-300] | 100 | 100 | 100 | 100 | 90 | 100 | –
